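Cells were grown in 96-well plates and exposed to each compound for 48 hours at five concentrations; endpoints were interpolated linearly between bracketing concentrations, or set to the highest concentration if not reached. Here, GI50 denotes the concentration required for 50% inhibition of growth. At the TGI there is no net growth.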
Tests used:
Test in all cases: DTP human tumour cell line panel, 48 h
HL-60(TB) leukemia = system: HL-60(TB) leukemia
PC-3 prostate = system: PC-3 prostate
HT29 colon = system: HT29 colon
NCI/ADR-RES ovarian = system: NCI/ADR-RES ovarian
RXF 393 renal = system: RXF 393 renal
U251 CNS = system: U251 CNS
MCF7 breast = system: MCF7 breast
SK-MEL-28 melanoma = system: SK-MEL-28 melanoma
SNB-75 CNS = system: SNB-75 CNS
NCI-H460 lung = system: NCI-H460 lung
BT-549 breast = system: BT-549 breast
SW-620 colon = system: SW-620 colon
CAKI-1 renal = system: CAKI-1 renal
HOP-62 NSCLC = system: HOP-62 NSCLC
SK-MEL-5 melanoma = system: SK-MEL-5 melanoma
SNB-19 CNS = system: SNB-19 CNS
UO-31 renal = system: UO-31 renal
SK-MEL-2 melanoma = system: SK-MEL-2 melanoma
MDA-MB-435 = system: MDA-MB-435
IGROV1 ovarian = system: IGROV1 ovarian
HS 578T breast = system: HS 578T breast
K-562 leukemia = system: K-562 leukemia
KM12 colon = system: KM12 colon
COLO 205 colon = system: COLO 205 colon
MDA-MB-231 breast = system: MDA-MB-231 breast
SR leukemia = system: SR leukemia
UACC-62 melanoma = system: UACC-62 melanoma
A498 renal = system: A498 renal
SF-539 CNS = system: SF-539 CNS
NCI-H23 lung = system: NCI-H23 lung
LOX IMVI melanoma = system: LOX IMVI melanoma
DU-145 prostate = system: DU-145 prostate
RPMI-8226 leukemia = system: RPMI-8226 leukemia
786-0 renal = system: 786-0 renal
OVCAR-3 ovarian = system: OVCAR-3 ovarian
SF-295 CNS = system: SF-295 CNS
SF-268 CNS = system: SF-268 CNS
NCI-H226 lung = system: NCI-H226 lung
ACHN renal = system: ACHN renal
SN12C renal = system: SN12C renal
UACC-257 melanoma = system: UACC-257 melanoma
OVCAR-5 ovarian = system: OVCAR-5 ovarian
HCT-15 colon = system: HCT-15 colon
HCT-116 colon = system: HCT-116 colon
EKVX NSCLC = system: EKVX NSCLC
NCI-H522 lung = system: NCI-H522 lung
TK-10 renal = system: TK-10 renal
OVCAR-8 ovarian = system: OVCAR-8 ovarian
MOLT-4 leukemia = system: MOLT-4 leukemia
CCRF-CEM leukemia = system: CCRF-CEM leukemia
A549 NSCLC = system: A549 NSCLC
OVCAR-4 ovarian = system: OVCAR-4 ovarian
SK-OV-3 ovarian = system: SK-OV-3 ovarian
T-47D breast = system: T-47D breast
HCC-2998 colon = system: HCC-2998 colon
HOP-92 NSCLC = system: HOP-92 NSCLC

OCNCCNc1nc2ccccc2c2[nH]c3ccccc3c12
GI50 (HL-60(TB) leukemia): 1.31 µM | TGI (HL-60(TB) leukemia): 3.93 µM | GI50 (PC-3 prostate): 0.879 µM | TGI (PC-3 prostate): 2.11 µM | GI50 (HT29 colon): 0.556 µM | TGI (HT29 colon): > 50 µM | GI50 (NCI/ADR-RES ovarian): 7.17 µM | TGI (NCI/ADR-RES ovarian): 22.6 µM | GI50 (RXF 393 renal): 1.11 µM | TGI (RXF 393 renal): 5.85 µM | GI50 (U251 CNS): 0.506 µM | TGI (U251 CNS): 1.9 µM | GI50 (MCF7 breast): 1.24 µM | TGI (MCF7 breast): 4.5 µM | GI50 (SK-MEL-28 melanoma): 1.01 µM | TGI (SK-MEL-28 melanoma): 6.84 µM | GI50 (SNB-75 CNS): 2.28 µM | TGI (SNB-75 CNS): 11.6 µM | GI50 (NCI-H460 lung): 1.46 µM | TGI (NCI-H460 lung): 5.8 µM | GI50 (BT-549 breast): 1.15 µM | TGI (BT-549 breast): 3.48 µM | GI50 (SW-620 colon): 0.366 µM | TGI (SW-620 colon): 2.22 µM | GI50 (CAKI-1 renal): 2.01 µM | TGI (CAKI-1 renal): 7.38 µM | GI50 (HOP-62 NSCLC): 0.371 µM | TGI (HOP-62 NSCLC): 1.92 µM | GI50 (SK-MEL-5 melanoma): 1.28 µM | TGI (SK-MEL-5 melanoma): 4.09 µM | GI50 (SNB-19 CNS): 2.1 µM | TGI (SNB-19 CNS): 11.7 µM | GI50 (UO-31 renal): 2.98 µM | TGI (UO-31 renal): > 50 µM | GI50 (SK-MEL-2 melanoma): 2.25 µM | TGI (SK-MEL-2 melanoma): 24 µM | GI50 (MDA-MB-435): 1.46 µM | TGI (MDA-MB-435): 5.11 µM | GI50 (IGROV1 ovarian): 1.14 µM | TGI (IGROV1 ovarian): 7.31 µM | GI50 (HS 578T breast): 1.46 µM | TGI (HS 578T breast): 3.87 µM | GI50 (K-562 leukemia): 1.55 µM | TGI (K-562 leukemia): 42.8 µM | GI50 (KM12 colon): 1.54 µM | TGI (KM12 colon): 7.37 µM | GI50 (COLO 205 colon): 1.76 µM | TGI (COLO 205 colon): > 50 µM | GI50 (MDA-MB-231 breast): 1.24 µM | TGI (MDA-MB-231 breast): 3.77 µM | GI50 (SR leukemia): 0.902 µM | TGI (SR leukemia): > 50 µM | GI50 (UACC-62 melanoma): 2 µM | TGI (UACC-62 melanoma): 7.5 µM | GI50 (A498 renal): 1.55 µM | TGI (A498 renal): 4.46 µM | GI50 (SF-539 CNS): 0.189 µM | TGI (SF-539 CNS): 0.863 µM | GI50 (NCI-H23 lung): 0.772 µM | TGI (NCI-H23 lung): 2.69 µM | GI50 (LOX IMVI melanoma): 0.441 µM | TGI (LOX IMVI melanoma): 1.39 µM | GI50 (DU-145 prostate): 0.735 µM | TGI (DU-145 prostate): 2.42 µM | GI50 (RPMI-8226 leukemia): 0.84 µM | TGI (RPMI-8226 leukemia): 2.01 µM | GI50 (786-0 renal): 0.34 µM | TGI (786-0 renal): 2.35 µM | GI50 (OVCAR-3 ovarian): 1.31 µM | TGI (OVCAR-3 ovarian): 3.67 µM | GI50 (SF-295 CNS): 1.41 µM | TGI (SF-295 CNS): 5.97 µM | GI50 (SF-268 CNS): 1.36 µM | TGI (SF-268 CNS): 6.44 µM | GI50 (NCI-H226 lung): 1.47 µM | TGI (NCI-H226 lung): 5.88 µM | GI50 (ACHN renal): 0.38 µM | TGI (ACHN renal): 2.24 µM | GI50 (SN12C renal): 1.26 µM | TGI (SN12C renal): 3.66 µM | GI50 (UACC-257 melanoma): 1.64 µM | TGI (UACC-257 melanoma): 5.71 µM | GI50 (OVCAR-5 ovarian): 0.582 µM | TGI (OVCAR-5 ovarian): 6.75 µM | GI50 (HCT-15 colon): 1.42 µM | TGI (HCT-15 colon): 6.71 µM | GI50 (HCT-116 colon): 0.186 µM | TGI (HCT-116 colon): 1.14 µM | GI50 (EKVX NSCLC): 1.18 µM | TGI (EKVX NSCLC): 3.25 µM | GI50 (NCI-H522 lung): 1.55 µM | TGI (NCI-H522 lung): > 50 µM | GI50 (TK-10 renal): 1.76 µM | TGI (TK-10 renal): 9.89 µM | GI50 (OVCAR-8 ovarian): 0.809 µM | TGI (OVCAR-8 ovarian): 8.41 µM | GI50 (MOLT-4 leukemia): 0.809 µM | TGI (MOLT-4 leukemia): > 50 µM

CO[C@]1(CN2CCN3CCCC[C@@H]3C2)/C=C/C[C@H](C)[C@@H](C)S(=O)(=O)NC(=O)c2ccc3c(c2)N(C[C@@H]2CC[C@H]21)C[C@@]1(CCCc2cc(Cl)ccc21)CO3
GI50 (HL-60(TB) leukemia): 0.0297 µM | TGI (HL-60(TB) leukemia): 0.153 µM | GI50 (SK-MEL-28 melanoma): 1.86 µM | TGI (SK-MEL-28 melanoma): 3.44 µM | GI50 (CCRF-CEM leukemia): 1.44 µM | TGI (CCRF-CEM leukemia): 13.3 µM | GI50 (SNB-75 CNS): 0.371 µM | TGI (SNB-75 CNS): 2.04 µM | GI50 (A549 NSCLC): 2.75 µM | TGI (A549 NSCLC): 10.6 µM | GI50 (CAKI-1 renal): 1.79 µM | TGI (CAKI-1 renal): 4.24 µM | GI50 (SK-MEL-5 melanoma): 1.71 µM | TGI (SK-MEL-5 melanoma): 3.11 µM | GI50 (SNB-19 CNS): 2.02 µM | TGI (SNB-19 CNS): 4.62 µM | GI50 (OVCAR-4 ovarian): 1.69 µM | TGI (OVCAR-4 ovarian): 6.61 µM | GI50 (UO-31 renal): 1.43 µM | TGI (UO-31 renal): 2.93 µM | GI50 (SK-MEL-2 melanoma): 0.0454 µM | TGI (SK-MEL-2 melanoma): 0.183 µM | GI50 (MDA-MB-435): 1.05 µM | TGI (MDA-MB-435): 2.42 µM | GI50 (HS 578T breast): 1.18 µM | TGI (HS 578T breast): 3.57 µM | GI50 (SK-OV-3 ovarian): 2.67 µM | TGI (SK-OV-3 ovarian): 7.5 µM | GI50 (K-562 leukemia): 2.28 µM | TGI (K-562 leukemia): 6.57 µM | GI50 (KM12 colon): 1.73 µM | TGI (KM12 colon): 3.25 µM | GI50 (MDA-MB-231 breast): 1.78 µM | TGI (MDA-MB-231 breast): 3.27 µM | GI50 (UACC-62 melanoma): 0.148 µM | TGI (UACC-62 melanoma): 1.22 µM | GI50 (A498 renal): 2.68 µM | TGI (A498 renal): 6.48 µM | GI50 (SF-539 CNS): 1.39 µM | TGI (SF-539 CNS): 2.72 µM | GI50 (NCI-H23 lung): 1.03 µM | TGI (NCI-H23 lung): 2.29 µM | GI50 (DU-145 prostate): 2.4 µM | TGI (DU-145 prostate): 6.54 µM | GI50 (RPMI-8226 leukemia): 0.0185 µM | TGI (RPMI-8226 leukemia): 41.8 µM | GI50 (T-47D breast): 1.87 µM | TGI (T-47D breast): 5.11 µM | GI50 (OVCAR-3 ovarian): 1.62 µM | TGI (OVCAR-3 ovarian): 3.03 µM | GI50 (ACHN renal): 1.86 µM | TGI (ACHN renal): 3.9 µM | GI50 (SN12C renal): 1.6 µM | TGI (SN12C renal): 3.08 µM | GI50 (HCC-2998 colon): 1.4 µM | TGI (HCC-2998 colon): 2.73 µM | GI50 (UACC-257 melanoma): 2.82 µM | TGI (UACC-257 melanoma): 9.34 µM | GI50 (OVCAR-5 ovarian): 1.93 µM | TGI (OVCAR-5 ovarian): 3.8 µM | GI50 (HCT-116 colon): 2.01 µM | TGI (HCT-116 colon): 4.79 µM | GI50 (EKVX NSCLC): 1.55 µM | TGI (EKVX NSCLC): 5.1 µM | GI50 (NCI-H522 lung): 0.37 µM | TGI (NCI-H522 lung): 1.93 µM | GI50 (HOP-92 NSCLC): 1.67 µM | TGI (HOP-92 NSCLC): 3.46 µM | GI50 (TK-10 renal): 2.33 µM | TGI (TK-10 renal): 6.39 µM | GI50 (MOLT-4 leukemia): 0.198 µM | TGI (MOLT-4 leukemia): 2.1 µM
